In PubChem BioAssay AID1918991 (Molecular Pharmacology Branch, DTP, NCI, 2023) one finds viability, T/C and IC50 data, which are given here for seven compounds.

The test system of this experiment is 186277-243-T-J2-PDC complex spheroid growth. The experiment is described as follows: Anticancer human tumor 186277-243-T-J2-PDC patient-derived colon adenocarcinoma cell line growth inhibition [AhR]. To be noted: for viability, T/C: stronger effect = lower value. An excerpt: Multicellular complex tumor spheroid response to aryl hydrocarbon receptor antagonists in combination with a variety of drugs and investigational agents in selected tumor cell lines
The current study was undertaken to assess response to aryl hydrocarbon receptor antagonists in combination with standard-of-care drugs and investigational agents in solid tumor complex spheroid models. Complex spheroids include a stromal component modeled by human endothelial cells (HUVEC) and fibroblasts modeled by human mesenchymal stem cells (MSCs). The concentration ranges selected for each drug and investigational agent were based upon clinically achievable concentrations if the clinical Cmax of the agent was known.
Compounds. The drugs and investigational agents: BAY 2416964 (NSC825713), GNF351 (NSC835774), CH-223191 (NSC835775), CPI-455 (NSC825282), aza-TdCyd (NSC777586), decitabine (NSC127716), belinostat (NSC758774), entinostat (NSC756642), pevonedistat (NSC761192), tazemetostat (NSC777109), talazoparib (NSC765396), olaparib (NSC753686), selinexor (NSC780203), nedisertib (M3814, NSC802822), bortezomib (NSC756655), venetoclax (NSC766270), doxorubicin (NSC123127), elimusertib (BAY189344, NSC800525), ceralasertib (AZD6738, NSC777638), TAK-243 (NSC785004), alisertib (NSC759677), etoposide (NSC141540), topotecan (NSC609699), eribulin (NSC707389), gemcitabine (NSC613327), carboplatin (NSC241240), cisplatin (NSC119875), and SN-38 (NSC673596) were obtained from the National Cancer Institute (NCI) Developmental Therapeutics Program Chemical Repository (32). The FDA-approved anticancer drug set is available from the Developmental Therapeutics Program at https://dtp.cancer.gov/organization/dscb/obtaining/available plates.htm. […] The stock solutions were prepared in dimethyl sulfoxide (DMSO, Sigma-Aldrich, St. Louis, MO, cat. D2650), except for the platinum compounds which were prepared in saline (Quality Biological, Gaithersburg, MD, cat. 114-055-101), at 800-fold the tested concentration and stored at -70 degrees C prior to their use. All drugs and investigational agents were tested over a range starting from a high concentration at or near the clinical Cmax and decreasing in half-log increments. If the clinical Cmax for an agent had not been determined, the highest concentration tested was 10 microM (Table 1).
Cell Culture. All cells were maintained in an incubator at 37 degrees C and 5% CO2 with 95% humidity. The PDC lines were cultured according to standard operating procedures established by the NCI PDMR (https://pdmr.cancer.gov). Briefly, all PDCs were thawed and cultured in Matrigel-coated flasks prepared with a working solution of 1X Ham's F-12 nutrient mix, without supplementation (Invitrogen, Waltham, MA, cat. 11765054), 100 U/mL penicillin-streptomycin (Invitrogen, cat. 15140122), and 2.5% Matrigel (Corning Inc., Corning, NY, cat. 354248) for the first three passages. All PDCs were cultured in complete DMEM/F-12 media containing advanced DMEM/F-12 (Invitrogen, cat. 12634028), 4.9% defined fetal bovine serum, heat inactivated (HyClone Laboratories Inc., Logan, UT, cat. SH30070.03HI), 389 ng/mL hydrocortisone (Sigma-Aldrich, cat. H4001), 9.7 ng/mL human EGF recombinant protein (Invitrogen, cat. PHG0313), 23.4 microg/mL adenine (Sigma-Aldrich, cat. A2786), 97.3 U/mL penicillin-streptomycin (Invitrogen, cat. 15140122), 1.9 mM L-glutamine (Invitrogen, cat. 25030081), and 9.7 microM Y-27632 dihydrochloride (Tocris Bioscience, Bristol, United Kingdom, cat. 1254). The PDCs were cultured in complete DMEM/F12 media without 10 microM Y-27632 dihydrochloride for at least two passages prior to the screen. The established cell lines NCI-H1341 and […] were cultured in DMEM/F-12, HEPES (Invitrogen, cat. 11330032), 5% defined fetal bovine serum (HyClone Laboratories Inc., cat. SH30070.03), ITS premix universal culture supplement [insulin (5 microg/mL), transferrin (5 microg/mL), and selenious acid (5 ng/mL)] […]

Where [1] appears, read: curve of first compound, second compound 0.1 µM.
Where [2] appears, read: curve of first compound, second compound 0.316 µM.
[3] abbreviates: curve of first compound, second compound 1 µM.
[4] abbreviates: curve of first compound, second compound 3.16 µM.
[5] abbreviates: curve of first compound, second compound 10 µM.
Setting [6] is: second compound 0.1 µM, first compound 0.0316 µM.
Setting [7] is: second compound 0.1 µM, first compound 0.1 µM.
[8] abbreviates: second compound 0.1 µM, first compound 0.316 µM.
Setting [9] is: second compound 0.1 µM, first compound 1 µM.
[10] abbreviates: second compound 0.316 µM, first compound 0.0316 µM.
Where [11] appears, read: second compound 0.316 µM, first compound 0.1 µM.
Where [12] appears, read: second compound 0.316 µM, first compound 0.316 µM.
Where [13] appears, read: second compound 0.316 µM, first compound 1 µM.
Where [14] appears, read: second compound 1 µM, first compound 0.0316 µM.
Where [15] appears, read: second compound 1 µM, first compound 0.1 µM.
Setting [16] is: second compound 1 µM, first compound 0.316 µM.
Setting [17] is: second compound 1 µM, first compound 1 µM.
[18] abbreviates: second compound 3.16 µM, first compound 0.0316 µM.
Setting [19] is: second compound 3.16 µM, first compound 0.1 µM.
Where [20] appears, read: second compound 3.16 µM, first compound 0.316 µM.
The mark [21] stands for this setting: second compound 3.16 µM, first compound 1 µM.
The mark [22] stands for this setting: second compound 10 µM, first compound 0.0316 µM.
Setting [23] is: second compound 10 µM, first compound 0.1 µM.
Where [24] appears, read: second compound 10 µM, first compound 0.316 µM.
Setting [25] is: second compound 10 µM, first compound 1 µM.

Molecules are shown by their SMILES. Values joined by “and” are separate entries in the source; they are usually repeats but may differ in a detail not shown here. Equal values may be shown once.
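Also: spheroids exposed to compounds for seven days before the viability read.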
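For viability, T/C in this document: luminescent signal used as a stand-in for viable cell amount; 100% = DMSO vehicle control wells.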

`CC(C)c1c(-c2ccccc2)nc2c(C#N)c[nH]n2c1=O`: the viability, T/C reads like this: (compound 0.0316 µM) 103% and 105% and 93.4%; (compound 0.1 µM) 88.8% and 101% and 94.2%; (compound 0.316 µM) 107% and 95.9% and 94.8%; (compound 1 µM) 103% and 113% and 97.7%; (compound 3.16 µM) 96.4% and 107% and 96.9%; (compound 10 µM) 92% and 105% and 91.7%. The IC50 (curve of compound) is above 10 µM.
Turning to `CC(CO)NC(=O)c1cc(-c2ccc(Cl)cc2)nn(-c2cnn(C)c2)c1=O` (configuration not stated), the viability, T/C runs as follows: (compound 1 µM) 98.3% [middle of 21 runs]; (compound 10 µM) 85.9% [middle of 19 runs]. The IC50 (compound alone, run of 07/12/2022) was above 10 µM.
On to `COc1ccc([C@@H](O)c2cc(-c3ncnc4cc(N5CCOCC5)ccc34)c(F)cc2Cl)nn1`, for which the viability, T/C (compound 0.0316 µM) is 103% and 94.6% and 86.8%; the viability, T/C (compound 0.1 µM) is 101% and 91.5% and 90.4%; the viability, T/C (compound 0.316 µM) was 115% and 102% and 95%; the viability, T/C (compound 1 µM) is 107% and 95.6% and 69.3%; the viability, T/C (compound 3.16 µM) is 108% and 87.9% and 46.4%; the viability, T/C (compound 10 µM) was 45.4% and 44.9% and 16.3%. Further, the IC50 (curve of compound) was 9.19 µM and 8.76 µM and 2.56 µM.
In the case of `Cc1ccccc1N=Nc1ccc(NC(=O)c2ccnn2C)c(C)c1`, the viability, T/C was 99.2% [middle of 20 runs] (compound 1 µM), 96% [middle of 20 runs] (compound 3.16 µM) and 88.8% [middle of 20 runs] (compound 10 µM). In addition, the IC50 (compound alone, run of 07/26/2022) is above 10 µM.
Consider `Cc1cncc(-c2nc(NCCc3c[nH]c4ccccc34)c3ncn(C(C)C)c3n2)c1`, for which the viability, T/C (compound 0.316 µM) was 97.7% [middle of 20 runs].
As for `COc1cccc2c1C(=O)c1c(O)c3c(c(O)c1C2=O)CC(O)(C(=O)CO)CC3OC1CC(N)C(O)C(C)O1` (configuration not stated) + CC(CO)NC(=O)c1cc(-c2ccc(Cl)cc2)nn(-c2cnn(C)c2)c1=O, the IC50 under setting [1] was below 0.0316 µM; the concentration for half-maximal inhibition (IC50) under setting [2] was below 0.0316 µM; the IC50 under setting [3] was below 0.0316 µM; the IC50 under setting [4] is below 0.0316 µM; the half-inhibitory concentration (IC50) under setting [5] is below 0.0316 µM. For the same compound, the viability, T/C was 39.3% under setting [6]; 28.8% under setting [7]; 7.36% under setting [8]; 0.1% under setting [9]; 0.08% (second compound 0.1 µM, first compound 3.16 µM); 0.32% (second compound 0.1 µM, first compound 10 µM). The viability, T/C under setting [10] is 38.3%; the viability, T/C under setting [11] was 27.1%; the viability, T/C under setting [12] was 7.61%; the viability, T/C under setting [13] is 0.08%; the viability, T/C (second compound 0.316 µM, first compound 3.16 µM) was 0.06%; the viability, T/C (second compound 0.316 µM, first compound 10 µM) was 0.6%. In addition, the viability, T/C by setting is: under setting [14], 37.9%; under setting [15], 29%; under setting [16], 8.06%; under setting [17], 0.09%; (second compound 1 µM, first compound 3.16 µM) 0.37%; (second compound 1 µM, first compound 10 µM) 0.22%. Also, the viability, T/C under setting [18] is 33.9%; the viability, T/C under setting [19] was 27.5%; the viability, T/C under setting [20] was 7.26%; the viability, T/C under setting [21] was 0.08%; the viability, T/C (second compound 3.16 µM, first compound 3.16 µM) was 0.09%; the viability, T/C (second compound 3.16 µM, first compound 10 µM) is 0.64%. The viability, T/C under setting [22] is 28.2%; the viability, T/C under setting [23] is 24.3%; the viability, T/C under setting [24] was 4.49%; the viability, T/C under setting [25] was 0.2%; the viability, T/C (second compound 10 µM, first compound 3.16 µM) is 0.17%; the viability, T/C (second compound 10 µM, first compound 10 µM) was 0.32%.
As to `Nc1ncn(C2CC(O)C(CO)O2)c(=O)n1` (configuration not stated) + CC(CO)NC(=O)c1cc(-c2ccc(Cl)cc2)nn(-c2cnn(C)c2)c1=O, the IC50 by setting is: under setting [1], above 1 µM; under setting [2], above 1 µM; under setting [3], above 1 µM; under setting [4], above 1 µM; under setting [5], above 1 µM. For the same compound, the viability, T/C (second compound 0.1 µM, first compound 0.00316 µM) was 110%; the viability, T/C (second compound 0.1 µM, first compound 0.01 µM) was 103%; the viability, T/C under setting [6] was 89.3%; the viability, T/C under setting [7] was 85.1%; the viability, T/C under setting [8] was 64.5%; the viability, T/C under setting [9] is 52.1%. Further, the viability, T/C (second compound 0.316 µM, first compound 0.00316 µM) was 92%; the viability, T/C (second compound 0.316 µM, first compound 0.01 µM) is 82.3%; the viability, T/C under setting [10] was 85.8%; the viability, T/C under setting [11] is 84.9%; the viability, T/C under setting [12] is 63.6%; the viability, T/C under setting [13] was 52.8%. The viability, T/C runs as follows: (second compound 1 µM, first compound 0.00316 µM) 84.6%; (second compound 1 µM, first compound 0.01 µM) 97.6%; under setting [14], 96.1%; under setting [15], 80.9%; under setting [16], 66.2%; under setting [17], 55.2%. In addition, the viability, T/C by setting is: (second compound 3.16 µM, first compound 0.00316 µM) 91.5%; (second compound 3.16 µM, first compound 0.01 µM) 95.1%; under setting [18], 94.3%; under setting [19], 82.5%; under setting [20], 66.8%; under setting [21], 59.4%. The viability, T/C runs as follows: (second compound 10 µM, first compound 0.00316 µM) 90.3%; (second compound 10 µM, first compound 0.01 µM) 81.2%; under setting [22], 90.9%; under setting [23], 79%; under setting [24], 63.1%; under setting [25], 51.7%.
